# Reference: US12517131B2, “Methods for labeling eukaryotic cells from a multicellular organism as well as for treating and/or diagnosing a cancer using modified monosaccharide compounds” (DIAMIDEX, priority 2019, dated 2026)
# Where “and” joins values, the source holds several entries; their conditions need not be identical. Equal values may be shown once.
# Experiments:
# Type in all cases: cell-based
# [1] = tested on: MDA MB231 (tumoral cell lines); assay: In vitro cytotoxicity of Ara-N3 probe (Annexin V/IP, MTS)
# Protocol: (§1) The cell lines (as detailed below in the table) were provided by Inserm/Aquiderm transfer cell. Cell culture of cell lines and cell cytoxicity tests were also carried out by Aquiderm transfer cell, in the laboratory of INSERM U1035.
# (§2) All the cells were seeded in culture plates, either in 96 wells at the density of 1*10^4 cells/well for the MTS proliferation test, either in 24 wells at the density of 5*10^4 cells/well for the Annexin V test/IP test. Then the cells were incubated at 37° C. and 5% CO2 for 24 hours. After 24 hours, the culture medium was changed in all the wells and the cells adhered to the bottom of the wells were rinsed twice in PBS (Eurobio) or centrifuged and washed twice in PBS for the cells in suspension, before being exposed to the Ara-N3 probe at different concentrations: 1, 10, 50 and 100 mM. The cells were incubated at 37° C. and 5% CO2 for 48 hours.
# (§3) This test requires the use of an Annexin V-APC kit (Biolegend) for the detection of apoptosis/necrosis. This test uses the ability of Annexin V to bind to membrane phosphatidylserines (PS) and the intercalating properties of propidium iodide (PI) on DNA.
# (§4) Briefly, after incubation of the cells with the Ara-N3 probe at different concentrations and at different times (24 h and 48 h), the cells were recovered, trypsinized (for adherent cells) and washed in PBS. After counting in trypan blue on the Malassez cell, the cells were incubated in a labeling buffer (100 μL) in the presence of Annexin V-APC (5 μL) and of IP (10 μL) for 15 minutes at room temperature and in the dark. They were then directly analyzed by cytometry after adding 100 μL of labeling buffer.
# (§5) The non-toxic concentrations of Ara-N3 with respect to the tested cells are gathered in the following Table 5.
# [2] = tested on: MDA MB453 (tumoral cell lines); assay: as above
# Protocol: as §1, §2, §3, §4, §5
# [3] = tested on: human uroepithelial cells (SV-HUC-1); assay: Labeling of bladder cells with Ara-N3 probe, copper-free click, fluorescence microscopy; conditions: 24 h, Ara-N3 10 mM
# Protocol: (§6) The human uroepithelial cells (SV-HUC-1) and the human urinary bladder carcinoma (T24) were purchased from ATCC (Manassas, Van USA). These cell lines were grown in RPMI 1640 with Glutamine 1 medium (Lonza Biowhttaker) supplemented by 10% fetal bovine serum (FBS) (VWR international S.A.S). The culture medium was changed every two days. The passaging of cells was performed using Tryp-LE express 1× (Gibco). The cell viability was estimated using trypan blue exclusion tests.
# (§7) SV-HUC-1 and T24 cells were seeded in 24-well plates, at density of 5*10^4 cells/well. Then, cells were incubated at 37° C., 5% in CO2 during 24 hours. Thereafter, the culture medium of each well was discarded, and attached cells were washed twice with Phosphate Buffer Salin (PBS) (Lonza Biowhittaker), before to be exposed to Ara-N3 probe (10 mM). Probe was added to culture medium with different FBS concentrations (3% and 10%). Then, cells were incubated at 37° C., 5% in CO2 for 24 hours again. The control cells were cultured using culture medium supplemented with 5% or 10% FBS, without addition of Ara-N3.
# (§8) The fluorescence Assimilation of Ara-N3 probes was visualized by copper-free click chemistry using sulfo-DBCO-biotin (1 mM), followed by labeling with a mouse anti-biotin Alexa Fluor 488 antibody conjugate (0.62 mg/ml stock, Jackson ImmunoResearch, dilution 1/10). The click reaction was carry-out as following: At 24 h incubation times, the culture mediums were removed, and attached cells were washed twice with PBS. Cells were detached with Tryp-LE, washed twice with PBS, and centrifuged at 13000 g for 2 min. The cellular pellets were resuspended with 10 μL of sulfo-DBCO-biotin and incubated 30 min in the dark, and at 37 C°. Then, cells were washed twice with PBS, centrifuged, and cellular pellets were resuspended with 10 μL of a mouse anti-biotin antibody solution, before to be incubated at room temperature in dark. Thereafter, cells were washed twice with PBS and small cellular suspension spots (5 μL) were put in Polysine® adhesion slides (VWR international S.A.S), in the dark room, until dry (20 min). The spots were fixed with 4% paraformaldehyde during 20 min, in dark and room temperature. Slides were then washed twice with PBS, before recovering with square cover glasses (VWR international S.A.S) using glycerol Mounting Medium (Dako) and stored at 4° C. in dark room.
# (§9) The fluorescence acquisition was recorded using Olympus Microscopy IX83 (Olympus Life Science) equipped with a 60×/1.3 […]/1.4 SRI (silicone refractive index) objective, and Hamamatsu oreca flash 4 LT camera with 109 nm/pixel calibrated pixel size. The excitation light was emitted by X-CITE 120LED using the AT180/30X excited filter and signal was monitored using AT535/40m emission filter. Green light exposition time was 600 ms and white light exposition time was determined by DIC methods at […]. The acquisition area size analyzed by the Celisens dimension V1.16 software was different depending on the cell number containing in the spot.
# (§10) The images were processed using count and measure unit of the Cellsens dimension V1.16 software. The background noise was deleted as follows: ROI were first defined on the background of the image and the average pixel intensity was calculated. The value thus obtained was subtracted from all pixels of the image. The fluorescence intensity of each cell was determined from a threshold set at a value of 3030. All pixels that have intensity below 3030 were not counted.
# [4] = tested on: human urinary bladder carcinoma (T24); assay: as above; conditions: 24 h, Ara-N3 10 mM
# Protocol: as §6, §7, §8, §9, §10
smiles,measurement,setting,value
"[N-]=[N+]=NC[C@H]1OC(O)[C@@H](O)[C@@H]1O (stereo partly drawn) [Ara-N3, 5-azido-5-deoxy-D-arabinofuranose]",Non-toxic concentration of Ara-N3,[1],>1 mM
same,Non-toxic concentration of Ara-N3,[2],>1 mM
same,"labelled cells %, SV-HUC1 %","[3]; Intensity/μm^2 0-50000, FBS 3%, n = 239",62.34%
same,"labelled cells %, SV-HUC1 %","[3]; Intensity/μm^2 0-50,000, FBS 10%, n = 301",73.45%
same,"labelled cells %, SV-HUC1 %","[3]; Intensity/μm^2 50,000-100,000, FBS 3%, n = 239",2.51%
same,"labelled cells %, SV-HUC1 %","[3]; Intensity/μm^2 50,000-100,000, FBS 10%, n = 301",4.32%
same,"labelled cells %, SV-HUC1 %","[3]; Intensity/μm^2 100,000-150,000, FBS 3%, n = 239",2.09%
same,"labelled cells %, SV-HUC1 %","[3]; Intensity/μm^2 100,000-150,000, FBS 10%, n = 301",1.66%
same,"labelled cells %, SV-HUC1 %","[3]; Intensity/μm^2 150,000-200,000, FBS 3%, n = 239",1.26%
same,"labelled cells %, SV-HUC1 %","[3]; Intensity/μm^2 150,000-200,000, FBS 10%, n = 301",1.33%
same,"labelled cells %, SV-HUC1 %","[3]; Intensity/μm^2 200,000-250,000, FBS 3%, n = 239",1.67%
same,"labelled cells %, SV-HUC1 %","[3]; Intensity/μm^2 200,000-250,000, FBS 10%, n = 301",0.66%
same,"labelled cells %, SV-HUC1 %","[3]; Intensity/μm^2 250,000-300,000, FBS 3%, n = 239",3.77%
same,"labelled cells %, SV-HUC1 %","[3]; Intensity/μm^2 250,000-300,000, FBS 10%, n = 301",0.66%
same,"labelled cells %, SV-HUC1 %","[3]; Intensity/μm^2 300,000-350,000, FBS 3%, n = 239",0.42%
same,"labelled cells %, SV-HUC1 %","[3]; Intensity/μm^2 300,000-350,000, FBS 10%, n = 301",0.33%
same,"labelled cells %, SV-HUC1 %","[3]; Intensity/μm^2 350,000-400,000, FBS 3%, n = 239",0.42%
same,"labelled cells %, SV-HUC1 %","[3]; Intensity/μm^2 350,000-400,000, FBS 10%, n = 301",0.66%
same,"labelled cells %, SV-HUC1 %","[3]; Intensity/μm^2 400,000-450,000, FBS 3%, n = 239",0.84%
same,"labelled cells %, SV-HUC1 %","[3]; Intensity/μm^2 400,000-450,000, FBS 10%, n = 301",0.66%
same,"labelled cells %, SV-HUC1 %","[3]; Intensity/μm^2 450,000-500,000, FBS 3%, n = 239",2.93%
same,"labelled cells %, SV-HUC1 %","[3]; Intensity/μm^2 450,000-500,000, FBS 10%, n = 301",1.33%
same,"labelled cells %, SV-HUC1 %","[3]; Intensity/μm^2 >500,000, FBS 3%, n = 239",21.76%
same,"labelled cells %, SV-HUC1 %","[3]; Intensity/μm^2 >500,000, FBS 10%, n = 301",14.62%
same,"labelled cells %, T24 %","[4]; Intensity/μm^2 0-50000, FBS 3%, n = 226",2.21%
same,"labelled cells %, T24 %","[4]; Intensity/μm^2 0-50,000, FBS 10%, n = 282",1.42%
same,"labelled cells %, T24 %","[4]; Intensity/μm^2 50,000-100,000, FBS 3%, n = 226",2.65%
same,"labelled cells %, T24 %","[4]; Intensity/μm^2 50,000-100,000, FBS 10%, n = 282",2.13%
same,"labelled cells %, T24 %","[4]; Intensity/μm^2 100,000-150,000, FBS 3%, n = 226",2.65%
same,"labelled cells %, T24 %","[4]; Intensity/μm^2 100,000-150,000, FBS 10%, n = 282",2.48%
same,"labelled cells %, T24 %","[4]; Intensity/μm^2 150,000-200,000, FBS 3%, n = 226",5.75%
same,"labelled cells %, T24 %","[4]; Intensity/μm^2 150,000-200,000, FBS 10%, n = 282",1.42%
same,"labelled cells %, T24 %","[4]; Intensity/μm^2 200,000-250,000, FBS 3%, n = 226",3.98%
same,"labelled cells %, T24 %","[4]; Intensity/μm^2 200,000-250,000, FBS 10%, n = 282",2.13%
same,"labelled cells %, T24 %","[4]; Intensity/μm^2 250,000-300,000, FBS 3%, n = 226",3.54%
same,"labelled cells %, T24 %","[4]; Intensity/μm^2 250,000-300,000, FBS 10%, n = 282",1.42%
same,"labelled cells %, T24 %","[4]; Intensity/μm^2 300,000-350,000, FBS 3%, n = 226",2.21%
same,"labelled cells %, T24 %","[4]; Intensity/μm^2 300,000-350,000, FBS 10%, n = 282",1.77%
same,"labelled cells %, T24 %","[4]; Intensity/μm^2 350,000-400,000, FBS 3%, n = 226",3.98%
same,"labelled cells %, T24 %","[4]; Intensity/μm^2 350,000-400,000, FBS 10%, n = 282",2.48%
same,"labelled cells %, T24 %","[4]; Intensity/μm^2 400,000-450,000, FBS 3%, n = 226",2.65%
same,"labelled cells %, T24 %","[4]; Intensity/μm^2 400,000-450,000, FBS 10%, n = 282",3.19%
same,"labelled cells %, T24 %","[4]; Intensity/μm^2 450,000-500,000, FBS 3%, n = 226",3.54%
same,"labelled cells %, T24 %","[4]; Intensity/μm^2 450,000-500,000, FBS 10%, n = 282",2.13%
same,"labelled cells %, T24 %","[4]; Intensity/μm^2 >500,000, FBS 3%, n = 226",66.81%
same,"labelled cells %, T24 %","[4]; Intensity/μm^2 >500,000, FBS 10%, n = 282",79.42% and 79.43%
